Assay results taken from the NIST ThermoML archive (doi:10.1016/j.jct.2003.11.001).

Assay: mn = molality of the nth substance listed, in mol/kg
Conditions: 101.3 kPa, Liquid; for viscosity: Capillary tube (Ostwald / Ubbelohde) method

CCCCCC(=O)[O-].[Na+] [sodium hexanoate] + O
Conditions	mass density, m1 = 0.5 [kg/m3]	mass density, m1 = 1 [kg/m3]	mass density, m1 = 1.5 [kg/m3]	mass density, m1 = 2.177 [kg/m3]	viscosity, m1 = 0.5 [mPa·s]	viscosity, m1 = 1 [mPa·s]	viscosity, m1 = 1.5 [mPa·s]	viscosity, m1 = 2.177 [mPa·s]
298.15 K	1014.4	1029.41	1041.88	1054.22	1.212	1.607	2.102	3.187
308.15 K	1010.74	1024.96	1036.7	1048.72	0.956	1.24	1.601	2.402
